The test system of assay [1] is Calreticulin (ICD target) in A375 cells. In words: Calreticulin immunofluorescence in A375 after FAK silencing plus Cobimetinib. To be noted: FAK siRNA 50 nM, then 10 nM Cobimetinib 48 hours. It counts as cell-based. The procedure: A375 cells were transfected with control siRNA or FAK siRNA at a final concentration of 50 nM. After 24 hours, A375 cells were treated with 10 nM Cobimetinib for 48 hours and then calreticulin was detected by immunofluorescence.

Assay [2] relates to endoplasmic reticulum stress-related proteins GRP78 and Phospho-eIF2α (Ser51) in A375 cells. In words: Endoplasmic reticulum stress protein expression in A375 after FAK silencing plus Cobimetinib. In kind it is cell-based. The following applies: FAK siRNA 50 nM, then Cobimetinib 6 hours. The procedure:
A375 cells were transfected with control siRNA or FAK siRNA at a final concentration of 50 nM. After 24 hours of transfection, different concentrations of Cobimetinib were given for 6 hours. The protein expression levels of FAK and endoplasmic reticulum stress-related proteins GRP78 and Phospho-eIF2α (phosphorylated-Phospho-eIF2α) (Ser51) were detected.

Assay [3] has as its system CT-26 mouse colorectal cancer cell subcutaneous allograft tumor. Nature of the assay: In vivo antitumor efficacy, CT-26 subcutaneous allograft tumor model (Example 3). Further details: species or system BALB/c mice; TGI (tumor growth inhibition rate): dose or concentration left out as unconfirmed. The following applies: for TGI (tumor growth inhibition rate) / Tumor volume on day 15: 15th day after group administration; for TGI (tumor growth inhibition rate): vs control group; for Tumor volume on day 15: Cobimetinib 7.5 mg/kg ip TIW, IN10018 12.5 mg/kg po QD, PDL1 antibody 5 mg/kg ip BIW, mean ± standard error. An excerpt:
Mice: Female BALB/c mice aged 6-8 weeks were purchased from Beijing Weitong Lihua Laboratory Animal Co., Ltd. The assay began after the animals arrived and were adapted to the experimental environment. The animals were kept in IVC (independent ventilation system) cages (6 per cage) in an SPF-level animal room. All cages, bedding and drinking water must be sterilized before use. All experimenters should wear protective clothing and latex gloves when operating in the animal room. The animal information cards for each cage should indicate the number of animals in the cage, gender, strain, receipt date, dosing regimen, assay number, group and start date of the assay. Cages, feed and drinking water were changed twice a week. The breeding environment and lighting conditions are as follows:
5% CO2 incubator. Two to three times a week, routine digestion and subculture were performed with trypsin-EDTA. When the cells were in the exponential growth phase and the saturation was 80%-90%, the cells were harvested, counted, and inoculated.
0.1 mL of cell suspension containing 3×10^5 cells was subcutaneously inoculated on the right back of each mouse. When the tumor volume reached ˜58 mm^3 (10 days after cell inoculation), the mice were randomly divided into groups for drug administration according to the tumor volume.
The diameter of tumor was measured with vernier caliper, 3 times a week. The formula for calculating the tumor volume is: V=0.5×a×b^2, where a and b represent the long and short diameters of the tumor respectively.
Animals were considered dead when they died naturally or when the tumor volume was greater than 2500 mm^3. The survival rate and life cycle of the animals after administration were calculated based on this.
Statistical analysis was performed based on tumor volume and tumor weight at the end of the trial using Prism Graphpad software. Comparisons between multiple groups were analyzed using the Two-way ANOVA test, and P<0.05 was considered as having significant differences.
The survival rate of animals was analyzed using the Gehan-Breslow-Wilcoxon test, and P<0.05 was considered as having significant difference.

For the next assay, the system named is melanoma cells A375. In words: Cell killing (CCK8) of Cobimetinib against A375 after FAK silencing. In kind it is cell-based. The following applies: with FAK silencing (FAK siRNA) vs control siRNA, 72 h. The procedure:
In the in vitro assay, different concentrations of Cobimetinib were given under the condition of silencing the FAK gene. In A375 cells, the cell killing curve was obtained and the IC50 value was determined. The cytotoxic effect of Cobimetinib in the control group and the FAK siRNA group was compared to explore the effect of the FAK target on the cytotoxicity of Cobimetinib. The cell killing curve of Cobimetinib at different concentrations in melanoma cells A375 under the condition of FAK gene silencing was detected in the assay and the IC50 value was determined. A 96-well cell plate was seeded with 5000 A375 cells/well, and two groups were transfected with control siRNA or FAK siRNA respectively. Cobimetinib was added 24 hours after the transfection. The highest concentration was 1 μM. A total of 6 concentrations were set for 3-fold gradient dilution. The lowest concentration of Cobimetinib was 4.115 nM. After the drug and cells were incubated for 72 hours, 10 μl CCK8 solution was added to each well and incubated at 37 degrees in a 5% carbon dioxide incubator for 2 hours. A microplate reader with the absorbance wavelength set to 450 nm was used for reading. The values read were compared to the DMSO control group and plotted using Graphpad 8.0.

In assay [4] the test system is colon cancer CT-26 cell line. In words: In vitro efficacy of IN10018 and HL-085 in CT26 cells (microscopy, flow cytometry). In kind it is cell-based, mouse. The following applies: 48 hours, IN10018 5 μM, HL-085 1 μM. The procedure: CT26 cells were cultured with RPMI 1640 (Shanghai Yuanpei, Cat No.: L210KJ, Lot No.: F210916)+10% FBS (Gibco, Cat No.: 10099-141c, Lot No.: 2158737cp) and passaged twice. When the cells were in good condition, the culture plates were placed in 24-well plates. After 24 hours of cell spreading, four groups were set up. The first group was the control group, to which culture medium was added, the second group was IN10018 at a concentration of 5 μM, the third group was HL-085 at a concentration of 1 μM, and the fourth group was IN10018 (5 μM) combined with HL-085 (1 μM). The drugs were mixed and cultured at 37° C. in a 5% CO2 incubator for 48 hours.
After 48 hours of drug action, cells were observed under a microscope and photographed to confirm the cell killing effect. Then the cells were collected for flow analysis, and the cells were washed twice with flow buffer (PBS+2% FBS) and 0.5 μl AF647. Anti-calreticulin antibody (abeam) was added to each well and mixed. The mixture was incubated at 4° C. in the dark, flow buffer was added after 20 min of incubation, the annexin staining kit (Beyotime) was used and 195 μl […] was added. After pipetting and mixing with the cells, 5 μl Annexin-V-FITC antibody was added and gently mixed. Finally, 10 μl PI dye was added and mixed. […]

For `O=C(c1ccc(F)c(F)c1Nc1ccc(I)cc1F)N1CC(O)([C@@H]2CCCCN2)C1` [Cobimetinib], the “exposure and release of the DAMPs marker calreticulin” value in assay [1] is on record as “significantly enhance”. For the same compound, the “endoplasmic reticulum stress of A375” value in assay [2] is on record as “Significantly Up-Regulated”. In assay [3], the “TGI (tumor growth inhibition rate)” value stood at 59.2% and the “Tumor volume on day 15” value was determined as 1261.3±565.4 mm^3. Further, the “Survival rate on Day 31” value in assay [3] (31st day after group administration, death = natural death or tumor volume > 2500 mm^3, Cobimetinib 7.5, IN10018 12.5, PDL1 antibody 5 mg/kg) was found to be 16.7%. Also, the Median survival time in assay [3] (up to the 31st day after group administration, Cobimetinib 7.5, IN10018 12.5, PDL1 antibody 5 mg/kg) was 22 days. For the same compound, the “cell killing effect of cobimetinib on melanoma cells A375” value in the assay with melanoma cells A375 is given as “significantly enhance”.
With `O=C(NOCCO)c1cc2scnc2c(F)c1Nc1ccc(I)cc1F` [HL-085], the “cell status / cell killing effect observed under a microscope” value in assay [4] is “poor”.
For `COc1cc(C(=O)NC2CCN(C)CC2)c(F)cc1Nc1ncc(C(F)(F)F)c(Oc2cccc3c2C(=O)N(C)C3)n1` [IN10018], in assay [3], the “TGI (tumor growth inhibition rate)” value amounted to 19.9% and the “Tumor volume on day 15” value came out at 2418.8±436.5 mm^3. In addition, the “cell status / cell killing effect observed under a microscope” value in assay [4] is listed as “better”.
